Test [1] can be described thus: DRUGMATRIX: GABAA, Chloride Channel, TBOB radioligand binding (ligand: [3H] TBOB). It is filed as cell membranes, Rattus norvegicus, Wistar, Cerebral cortex, Membrane. The conditions noted are these: Not Active = under 50% inhibition at 10 µM.
In another test the target is T1, Endothelin-1 receptor (Homo sapiens, UniProt P25101). Also: in other assays of this panel Not Active means under 50% inhibition at 10 µM.
T1 sequence (P25101 whole entry): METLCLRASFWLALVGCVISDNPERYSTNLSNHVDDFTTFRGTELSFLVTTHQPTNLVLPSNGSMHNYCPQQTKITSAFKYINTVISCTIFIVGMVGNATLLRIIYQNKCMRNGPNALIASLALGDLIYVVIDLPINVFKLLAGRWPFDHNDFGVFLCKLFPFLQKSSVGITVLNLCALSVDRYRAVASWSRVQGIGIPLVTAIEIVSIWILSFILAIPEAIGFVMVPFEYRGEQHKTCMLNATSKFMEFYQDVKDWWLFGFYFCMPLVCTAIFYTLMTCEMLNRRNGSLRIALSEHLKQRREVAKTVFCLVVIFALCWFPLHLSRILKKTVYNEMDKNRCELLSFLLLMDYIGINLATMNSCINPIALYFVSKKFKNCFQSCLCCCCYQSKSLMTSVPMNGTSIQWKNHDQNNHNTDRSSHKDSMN
It is filed as cell membranes, CHO-K1, Membrane.

Test [2] deals with Matrix metalloproteinase-9 (Homo sapiens, UniProt P14780). Briefly: biochemical. It is filed as cell-based.
The next test has as its target Insulin receptor (Rattus norvegicus, UniProt P15127). The format is cell membranes, Wistar, Liver, Membrane. Also: in other assays of this panel Not Active means under 50% inhibition at 10 µM.
Test [3] has as its target T2, C-X-C chemokine receptor type 1 (Homo sapiens, UniProt P25024). Also: in other assays of this panel Not Active means under 50% inhibition at 10 µM.
T2 sequence (P25024 whole entry): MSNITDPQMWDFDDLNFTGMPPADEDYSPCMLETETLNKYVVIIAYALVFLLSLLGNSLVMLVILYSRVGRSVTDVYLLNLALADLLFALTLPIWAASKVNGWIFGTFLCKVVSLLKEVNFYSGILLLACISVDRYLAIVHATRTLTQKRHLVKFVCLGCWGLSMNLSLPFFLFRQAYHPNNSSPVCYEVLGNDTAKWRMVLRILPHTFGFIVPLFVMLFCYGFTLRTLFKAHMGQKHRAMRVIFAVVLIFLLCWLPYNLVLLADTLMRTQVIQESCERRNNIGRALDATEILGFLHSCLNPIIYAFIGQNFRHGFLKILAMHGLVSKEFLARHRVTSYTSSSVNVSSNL

The target of test [4] is Sodium-dependent noradrenaline transporter (Homo sapiens, UniProt P23975). The test can be described thus: DRUGMATRIX: Norepinephrine Transporter radioligand binding (ligand: [125I] RTI-55). The conditions noted are these: Not Active = under 50% inhibition at 10 µM; for Ki: read-out: Ki. The format is cell membranes, MDCK, Membrane.
Another test has as its target Vasopressin V1a receptor (Homo sapiens, UniProt P37288). The format is cell membranes, Membrane. The conditions noted are these: hek293. Also: in other assays of this panel Not Active means under 50% inhibition at 10 µM.

The structures appear in SMILES notation.

Chain of Sodium-dependent noradrenaline transporter (P23975 whole entry): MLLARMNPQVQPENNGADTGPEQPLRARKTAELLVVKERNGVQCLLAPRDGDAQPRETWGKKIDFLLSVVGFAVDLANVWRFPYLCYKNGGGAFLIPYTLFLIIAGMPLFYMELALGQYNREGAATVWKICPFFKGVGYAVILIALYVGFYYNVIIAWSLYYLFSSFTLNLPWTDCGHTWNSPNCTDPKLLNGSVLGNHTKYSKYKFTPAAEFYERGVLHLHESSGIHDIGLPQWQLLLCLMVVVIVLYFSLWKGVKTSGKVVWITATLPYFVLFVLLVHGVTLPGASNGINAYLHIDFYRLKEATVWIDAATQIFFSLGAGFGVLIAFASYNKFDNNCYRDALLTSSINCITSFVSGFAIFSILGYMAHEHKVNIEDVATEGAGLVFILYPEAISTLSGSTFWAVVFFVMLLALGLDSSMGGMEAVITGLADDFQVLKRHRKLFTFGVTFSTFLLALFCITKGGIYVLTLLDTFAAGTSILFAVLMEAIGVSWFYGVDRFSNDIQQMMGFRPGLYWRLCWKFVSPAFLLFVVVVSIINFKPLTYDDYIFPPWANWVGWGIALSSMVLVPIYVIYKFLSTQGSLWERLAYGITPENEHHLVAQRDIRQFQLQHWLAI
Chain of Matrix metalloproteinase-9 (P14780 whole entry): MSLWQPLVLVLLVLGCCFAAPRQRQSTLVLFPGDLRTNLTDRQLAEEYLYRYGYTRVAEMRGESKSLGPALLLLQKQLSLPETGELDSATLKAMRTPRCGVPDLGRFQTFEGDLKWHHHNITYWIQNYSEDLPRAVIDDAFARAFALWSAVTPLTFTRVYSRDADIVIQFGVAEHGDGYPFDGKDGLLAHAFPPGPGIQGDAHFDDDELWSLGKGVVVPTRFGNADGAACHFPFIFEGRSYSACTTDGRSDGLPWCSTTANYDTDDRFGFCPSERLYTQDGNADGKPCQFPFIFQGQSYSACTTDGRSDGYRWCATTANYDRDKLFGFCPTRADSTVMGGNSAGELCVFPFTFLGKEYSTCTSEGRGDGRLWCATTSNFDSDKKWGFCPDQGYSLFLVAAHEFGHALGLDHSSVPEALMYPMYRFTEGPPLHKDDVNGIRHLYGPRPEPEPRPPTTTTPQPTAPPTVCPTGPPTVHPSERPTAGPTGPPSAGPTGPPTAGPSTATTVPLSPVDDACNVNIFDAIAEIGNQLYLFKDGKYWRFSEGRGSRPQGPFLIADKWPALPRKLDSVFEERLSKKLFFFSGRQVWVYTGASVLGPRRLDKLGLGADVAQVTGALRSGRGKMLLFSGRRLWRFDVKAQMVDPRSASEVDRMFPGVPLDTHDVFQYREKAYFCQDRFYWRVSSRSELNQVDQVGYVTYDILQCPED
Chain of Insulin receptor (P15127 27-759 limits assumed): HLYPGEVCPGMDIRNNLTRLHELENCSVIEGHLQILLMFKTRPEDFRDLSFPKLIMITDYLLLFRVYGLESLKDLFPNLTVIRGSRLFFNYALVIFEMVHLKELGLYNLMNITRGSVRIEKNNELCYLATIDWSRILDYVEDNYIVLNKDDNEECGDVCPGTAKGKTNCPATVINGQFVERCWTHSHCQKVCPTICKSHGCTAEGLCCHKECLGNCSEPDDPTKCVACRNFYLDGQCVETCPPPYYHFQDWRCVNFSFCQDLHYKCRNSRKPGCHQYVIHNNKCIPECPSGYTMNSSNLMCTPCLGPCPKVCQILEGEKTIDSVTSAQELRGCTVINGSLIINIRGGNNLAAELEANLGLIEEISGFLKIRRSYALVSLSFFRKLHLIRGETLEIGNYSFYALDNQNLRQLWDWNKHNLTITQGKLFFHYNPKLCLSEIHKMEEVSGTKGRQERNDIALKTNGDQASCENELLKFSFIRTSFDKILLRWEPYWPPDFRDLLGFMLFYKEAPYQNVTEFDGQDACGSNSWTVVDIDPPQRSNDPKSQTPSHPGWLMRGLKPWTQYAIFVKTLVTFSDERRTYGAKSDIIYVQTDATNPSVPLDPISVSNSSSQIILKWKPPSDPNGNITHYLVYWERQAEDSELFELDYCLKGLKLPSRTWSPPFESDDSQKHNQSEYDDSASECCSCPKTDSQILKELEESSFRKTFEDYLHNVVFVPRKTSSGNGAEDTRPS
Chain of Insulin receptor (P15127 764-1383 limits assumed): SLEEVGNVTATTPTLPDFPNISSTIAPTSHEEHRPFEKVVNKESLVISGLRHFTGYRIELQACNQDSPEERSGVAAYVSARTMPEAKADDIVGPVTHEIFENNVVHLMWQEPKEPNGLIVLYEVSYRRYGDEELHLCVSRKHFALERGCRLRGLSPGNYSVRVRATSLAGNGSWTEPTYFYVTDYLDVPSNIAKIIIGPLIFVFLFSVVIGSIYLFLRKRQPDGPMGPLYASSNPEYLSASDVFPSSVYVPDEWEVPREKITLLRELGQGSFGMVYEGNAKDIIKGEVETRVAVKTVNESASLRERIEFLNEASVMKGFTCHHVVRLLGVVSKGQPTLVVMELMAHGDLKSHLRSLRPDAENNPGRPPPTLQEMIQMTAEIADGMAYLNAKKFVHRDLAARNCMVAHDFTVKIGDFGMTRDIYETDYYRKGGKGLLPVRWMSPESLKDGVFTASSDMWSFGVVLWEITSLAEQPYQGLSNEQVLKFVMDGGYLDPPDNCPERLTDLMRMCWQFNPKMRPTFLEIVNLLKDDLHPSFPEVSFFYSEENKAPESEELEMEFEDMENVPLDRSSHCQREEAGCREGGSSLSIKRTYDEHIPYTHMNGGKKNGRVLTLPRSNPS
Chain of Vasopressin V1a receptor (P37288 whole entry): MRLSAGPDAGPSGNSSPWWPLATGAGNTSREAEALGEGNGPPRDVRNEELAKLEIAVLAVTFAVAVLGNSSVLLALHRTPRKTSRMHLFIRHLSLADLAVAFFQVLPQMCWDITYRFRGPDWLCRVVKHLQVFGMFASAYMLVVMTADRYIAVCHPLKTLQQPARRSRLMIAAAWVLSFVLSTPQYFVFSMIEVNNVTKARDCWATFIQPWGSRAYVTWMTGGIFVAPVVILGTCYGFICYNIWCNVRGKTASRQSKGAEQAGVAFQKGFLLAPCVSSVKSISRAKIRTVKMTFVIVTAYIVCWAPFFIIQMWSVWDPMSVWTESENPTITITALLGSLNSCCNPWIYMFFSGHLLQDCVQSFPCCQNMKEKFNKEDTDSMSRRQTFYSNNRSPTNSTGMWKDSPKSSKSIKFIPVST

For `CC(C)(C)NC(=O)[C@@H]1C[C@@H]2CCCC[C@@H]2CN1C[C@@H](O)[C@H](Cc1ccccc1)NC(=O)[C@H](CC(N)=O)NC(=O)c1ccc2ccccc2n1`, the half-inhibitory concentration (IC50) entry (in test [1]; at Endothelin-1 receptor (cho-k1); in test [2]; on Insulin receptor; in test [3]; in test [4] (mdck)) was “Not Active” in each case. Moreover, the Ki (commonly a measure of affinity in units of concentration, obtained from inhibition or displacement) in test [1] is “Not Active”.
Take `CC1(C)O[C@@H]2C[C@H]3[C@@H]4CCC5=CC(=O)C=C[C@]5(C)[C@@]4(F)[C@@H](O)C[C@]3(C)[C@]2(C(=O)CO)O1` [TRIAMCINOLONE ACETONIDE]: the IC50 entry (in test [1]; at Endothelin-1 receptor (cho-k1); at Vasopressin V1a receptor; in test [2]; at Insulin receptor; in test [3]) was “Not Active” throughout. In addition, in test [4] (mdck), the IC50 (commonly the point on the concentration scale where inhibition reaches its midpoint) is listed as “Not Active”. In addition, the inhibition constant Ki entry in test [1] is given as “Not Active”.
Consider `Cc1cccc(N(C)C(=S)Oc2ccc3ccccc3c2)c1` [TOLNAFTATE], for which the IC50 result (in test [1]; against Endothelin-1 receptor (cho-k1); on Vasopressin V1a receptor; in test [2]; against Insulin receptor; in test [3]) was “Not Active” throughout. In test [4] (mdck), the IC50 result is “Not Active”. In test [1], the Ki result is reported as “Not Active”.
Take `C[C@@H]1CN(c2c(F)c(N)c3c(=O)c(C(=O)O)cn(C4CC4)c3c2F)C[C@H](C)N1` [SPARFLOXACIN]: the IC50 result (in test [1]; against Endothelin-1 receptor (cho-k1); on Vasopressin V1a receptor; in test [2]; on Insulin receptor; in test [3]) was “Not Active” throughout. Further, in test [4] (mdck), the IC50 result was “Not Active”. Besides, the inhibitory constant (Ki) entry in test [1] is “Not Active”.
On to `Cn1ccnc1S` [METHIMAZOLE], for which the concentration for half-maximal inhibition (IC50) result (in test [1]; against Endothelin-1 receptor (cho-k1); against Vasopressin V1a receptor; in test [2]; against Insulin receptor; in test [3]) was “Not Active” throughout. Further, in test [4] (mdck), the half-maximal inhibitory concentration (IC50) result is listed as “Not Active”. Also, the Ki result in test [1] is “Not Active”.
`CN1CCN(CCCN2c3ccccc3Sc3ccc(Cl)cc32)CC1` [PROCHLORPERAZINE]: the IC50 entry (against Endothelin-1 receptor (cho-k1); against Vasopressin V1a receptor; in test [2]; on Insulin receptor; in test [3]) was “Not Active” in each case.
As for `C=CCC1(C(C)CCC)C(=O)NC(=O)NC1=O` (stereo not drawn) [SECOBARBITAL], the IC50 result was “Not Active” in test [1]; “Not Active” at Endothelin-1 receptor (cho-k1); “Not Active” on Vasopressin V1a receptor; 2640 nM in test [2] (read-out: IC50); “Not Active” against Insulin receptor; “Not Active” in test [3]. Moreover, the half-inhibitory concentration (IC50) result in test [4] (mdck) is given as “Not Active”. In addition, the inhibition constant (Ki) entry in test [1] is “Not Active”.
`N[C@@H](Cc1ccc(N(CCCl)CCCl)cc1)C(=O)O`: the concentration for half-maximal inhibition (IC50) result (in test [1]; on Endothelin-1 receptor (cho-k1); against Vasopressin V1a receptor; in test [2]; against Insulin receptor; in test [3]) was “Not Active” throughout. Besides, in test [4] (mdck), the IC50 entry was “Not Active”. Besides, in test [1], the Ki entry is recorded as “Not Active”.
For the compound `Nc1nc2ccc(OC(F)(F)F)cc2s1` [RILUZOLE], the IC50 result (in test [1]; at Endothelin-1 receptor (cho-k1); at Vasopressin V1a receptor; in test [2]; at Insulin receptor; in test [3]) was “Not Active” in each case. Moreover, the IC50 in test [4] (read-out: IC50) stood at 1730 nM. Besides, the Ki entry in test [1] is “Not Active”; in test [4] it was 1720 nM.
For `N[C@@H]1[C@H]2CN(c3nc4c(cc3F)c(=O)c(C(=O)O)cn4-c3ccc(F)cc3F)C[C@@H]12` [TROVAFLOXACIN], the IC50 result (in test [1]; on Endothelin-1 receptor (cho-k1); at Vasopressin V1a receptor; in test [2]; against Insulin receptor; in test [3]) was “Not Active” each time. The half-maximal inhibitory concentration (IC50) entry in test [4] (mdck) is on record as “Not Active”. The inhibitory constant (Ki) entry in test [1] was “Not Active”.
For `COc1c(C)c2c(c(O)c1C/C=C(\C)CCC(=O)O)C(=O)OC2` [MYCOPHENOLIC ACID], the half-inhibitory concentration (IC50) result (in test [1]; against Endothelin-1 receptor (cho-k1); against Vasopressin V1a receptor; in test [2]; on Insulin receptor; in test [3]) was “Not Active” in each case. Besides, the 50% inhibitory concentration (IC50) entry in test [4] (mdck) was “Not Active”. Further, the Ki entry in test [1] is “Not Active”.
For `CCCOc1ccccc1-c1nc2nn[nH]c2c(=O)[nH]1` [ZAPRINAST], the concentration for half-maximal inhibition (IC50) entry (in test [1]; against Endothelin-1 receptor (cho-k1); on Vasopressin V1a receptor; in test [2]; at Insulin receptor; in test [3]) was “Not Active” in each case. Moreover, the IC50 entry in test [4] (mdck) was “Not Active”. The inhibition constant (Ki) entry in test [1] was “Not Active”.
As to `Nc1nc2nc[nH]c2c(=S)[nH]1` [THIOGUANINE], the concentration for half-maximal inhibition (IC50) result (in test [1]; against Endothelin-1 receptor (cho-k1); on Vasopressin V1a receptor; in test [2]; against Insulin receptor; in test [3]) was “Not Active” each time. Further, in test [4] (mdck), the 50% inhibitory concentration (IC50) result is reported as “Not Active”. Moreover, the Ki entry in test [1] is “Not Active”.
Regarding `Cc1c(C)c2c(c(C)c1O)CCC(C)(COc1ccc(CC3SC(=O)NC3=O)cc1)O2` (stereo not drawn) [TROGLITAZONE], the IC50 result (in test [1]; against Endothelin-1 receptor (cho-k1); on Vasopressin V1a receptor; in test [2]; against Insulin receptor; in test [3]) was “Not Active” in each case. In test [4] (mdck), the IC50 result is listed as “Not Active”. Further, the Ki result in test [1] is listed as “Not Active”.
In the case of `Cc1nc2n(c(=O)c1CCN1CCC(c3noc4cc(F)ccc34)CC1)CCCC2` [RISPERIDONE], the 50% inhibitory concentration (IC50) result (against Endothelin-1 receptor (cho-k1); on Vasopressin V1a receptor; in test [2]; at Insulin receptor; in test [3]; in test [4] (mdck)) was “Not Active” throughout.
With `COc1nc(C)nc(Cl)c1NC1=NCCN1` [MOXONIDINE], the concentration for half-maximal inhibition (IC50) entry (in test [1]; against Endothelin-1 receptor (cho-k1); on Vasopressin V1a receptor; in test [2]; against Insulin receptor; in test [3]) was “Not Active” throughout. Also, the concentration for half-maximal inhibition (IC50) result in test [4] (mdck) is “Not Active”. Further, the inhibition constant Ki entry in test [1] is reported as “Not Active”.
Consider `N[C@@H](Cc1cc(I)c(Oc2ccc(O)c(I)c2)c(I)c1)C(=O)O` [LIOTHYRONINE], for which the concentration for half-maximal inhibition (IC50) result (against Endothelin-1 receptor (cho-k1); against Vasopressin V1a receptor; in test [2]; on Insulin receptor; in test [3]; in test [4] (mdck)) was “Not Active” throughout.
Regarding `Cc1noc(NS(=O)(=O)c2ccc(N)cc2)c1C` [SULFISOXAZOLE], the half-inhibitory concentration (IC50) entry (in test [1]; at Vasopressin V1a receptor; in test [2]; on Insulin receptor; in test [3]; in test [4] (mdck)) was “Not Active” throughout. Also, in test [1], the Ki entry is reported as “Not Active”.
Consider `CCCCc1oc2ccccc2c1C(=O)c1cc(I)c(OCCN(CC)CC)c(I)c1` [AMIODARONE], for which the IC50 on Endothelin-1 receptor (read-out: IC50) was 26300 nM; on Vasopressin V1a receptor it was “Not Active”; in test [2], “Not Active”; on Insulin receptor, “Not Active”; in test [3], “Not Active”. On Endothelin-1 receptor (read-out: Ki), the Ki was 16200 nM.
Consider `CC(C)N1CCN(c2ccc(OCC3COC(Cn4cncn4)(c4ccc(Cl)cc4Cl)O3)cc2)CC1` (stereo not drawn) [TERCONAZOLE], for which the IC50 entry (in test [1]; against Endothelin-1 receptor (cho-k1); against Vasopressin V1a receptor; in test [2]; against Insulin receptor; in test [3]) was “Not Active” in each case. Besides, the inhibition constant (Ki) result in test [1] is reported as “Not Active”.
As to `CC/C(=C(\c1ccccc1)c1ccc(OCCN(C)C)cc1)c1ccccc1` [TAMOXIFEN], the half-inhibitory concentration (IC50) entry against Endothelin-1 receptor (cho-k1) is “Not Active”; against Vasopressin V1a receptor, “Not Active”; in test [2] it was “Not Active”; on Insulin receptor, “Not Active”; in test [3], “Not Active”; in test [4] (read-out: IC50) it was 1470 nM. In test [4], the inhibitory constant (Ki) came to 1460 nM.
Regarding `Cc1oncc1C(=O)Nc1ccc(C(F)(F)F)cc1` [LEFLUNOMIDE], the concentration for half-maximal inhibition (IC50) entry (in test [1]; against Endothelin-1 receptor (cho-k1); against Vasopressin V1a receptor; in test [2]; against Insulin receptor; in test [3]) was “Not Active” throughout. Also, the Ki result in test [1] is “Not Active”.
